Here are results for 37 compounds from ChEMBL document CHEMBL3259563, “The discovery of potent and selective non-steroidal glucocorticoid receptor modulators, suitable for inhalation” (Bioorg Med Chem Lett, 2014).

The IC50 is the point on the concentration scale where inhibition reaches its midpoint. Read a high IC50 as weaker potency. Broadly, the logD is the decadic logarithm of the distribution of all forms, ionised or not, between an organic phase and buffer at a given pH. Broadly, the inhibition in vivo is the change of the read-out against control, counted positive when it falls.

The target of data set [1] is T1, Glucocorticoid receptor (Homo sapiens, UniProt P04150).
T1 sequence (P04150 whole entry): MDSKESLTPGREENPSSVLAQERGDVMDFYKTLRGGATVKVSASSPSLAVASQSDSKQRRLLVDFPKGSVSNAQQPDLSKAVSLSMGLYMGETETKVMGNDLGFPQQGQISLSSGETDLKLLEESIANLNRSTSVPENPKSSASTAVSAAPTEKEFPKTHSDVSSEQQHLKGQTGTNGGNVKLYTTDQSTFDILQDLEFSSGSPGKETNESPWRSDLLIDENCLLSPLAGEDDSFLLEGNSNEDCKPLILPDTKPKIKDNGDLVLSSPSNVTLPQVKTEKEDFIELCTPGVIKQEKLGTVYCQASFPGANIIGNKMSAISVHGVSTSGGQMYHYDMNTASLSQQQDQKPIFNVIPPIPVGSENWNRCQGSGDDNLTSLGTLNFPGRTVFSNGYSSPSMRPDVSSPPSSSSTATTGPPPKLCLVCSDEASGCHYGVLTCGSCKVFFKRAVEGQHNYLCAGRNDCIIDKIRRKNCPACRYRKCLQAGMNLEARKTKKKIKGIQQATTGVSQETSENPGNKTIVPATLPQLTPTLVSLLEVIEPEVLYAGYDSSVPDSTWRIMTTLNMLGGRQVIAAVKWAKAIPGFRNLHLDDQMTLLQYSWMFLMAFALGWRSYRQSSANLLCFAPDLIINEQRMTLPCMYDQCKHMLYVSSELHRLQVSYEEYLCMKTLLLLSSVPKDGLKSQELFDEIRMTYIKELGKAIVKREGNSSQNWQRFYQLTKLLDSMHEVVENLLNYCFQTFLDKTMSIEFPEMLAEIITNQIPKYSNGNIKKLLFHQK
Description: Agonist activity at glucocorticoid receptor in human Chago K1 cells assessed as gene transrepression by Lac-Z reporter gene assay

Data set [2] concerns the target T1, Glucocorticoid receptor. The source holds these as a separate data set.
Description: Agonist activity at glucocorticoid receptor in human PBMC assessed as inhibition of LPS-stimulated TNF-alpha release
Data set [3] concerns the target T1, Glucocorticoid receptor. The source holds these as a separate data set.
Description: Binding affinity to human glucocorticoid receptor by fluorescence polarization assay
Data set [4] can be described thus: Lipophilicity, log D of the compound at pH 7.4. The data set is classed as physicochemical. The following applies: buffer.
Data set [5] has as its system Rattus norvegicus. As to the kind of experiment: Antiinflammatory activity in rat assessed as inhibition of LPS-induced leukocyte influx to broncho-alveolar lavage fluid at 10 ug/kg, administered intratracheally 2 hrs prior to LPS challenge measured after 4 hrs relative to control. The data set is classed as functional. Conditions: inhaled or nasal.
Data set [6] has as its system Rattus norvegicus. As to the kind of experiment: Antiinflammatory activity in rat assessed as inhibition of LPS-induced leukocyte influx to broncho-alveolar lavage fluid at 30 ug/kg, administered intratracheally 2 hrs prior to LPS challenge measured after 4 hrs relative to control. Conditions: inhaled or nasal. The class given is functional.
The subject of data set [7] is Rattus norvegicus. As to the kind of experiment: Antiinflammatory activity in rat assessed as inhibition of LPS-induced leukocyte influx to broncho-alveolar lavage fluid at 100 ug/kg, administered intratracheally 2 hrs prior to LPS challenge measured after 4 hrs relative to control. The class given is functional. The following applies: inhaled or nasal.
The subject of data set [8] is Rattus norvegicus. In words: Antiinflammatory activity in rat assessed as inhibition of LPS-induced lung edema at 10 ug/kg, administered intratracheally 2 hrs prior to LPS challenge measured after 4 hrs relative to control. The class given is functional. Conditions: inhaled or nasal.
The subject of data set [9] is Rattus norvegicus. In words: Antiinflammatory activity in rat assessed as inhibition of LPS-induced lung edema at 30 ug/kg, administered intratracheally 2 hrs prior to LPS challenge measured after 4 hrs relative to control. The data set is classed as functional. Conditions: inhaled or nasal.
Data set [10] relates to Rattus norvegicus. As to the kind of experiment: Antiinflammatory activity in rat assessed as inhibition of LPS-induced lung edema at 100 ug/kg, administered intratracheally 2 hrs prior to LPS challenge measured after 4 hrs relative to control. The data set is classed as functional. The following applies: inhaled or nasal.
A further data set deals with Mus musculus. In words: Antiinflammatory activity in mouse acute cigarette smoke model assessed as inhibition of neutrophil influx to broncho-alveolar lavage fluid at 30 ug/kg, administered intratracheally 30 mins prior to first cigarette smoke challenge every day for 4 days measured after 24 hrs post last cigarette smoke challenge relative to control. The following applies: inhaled or nasal.

With `Cc1cc(C)c(S(=O)(=O)N[C@@H](C)CNc2cccc3c2cnn3-c2ccccc2)c(C)c1`, the values for the IC50 at Glucocorticoid receptor [1] and against Glucocorticoid receptor [2] were 1.5 nM and 1.6 nM, respectively. At Glucocorticoid receptor [3], `Cc1cc(C)c(S(=O)(=O)N[C@@H](C)CCc2ccccc2)c(C)c1` displayed an IC50 of 55 nM. For the compound `Cc1cc(C)c(S(=O)(=O)N[C@@H](C)CNc2cccc3nc(C)ccc23)c(C)c1`, the half-maximal inhibitory concentration (IC50) on Glucocorticoid receptor [3] turned out to be 160 nM; at Glucocorticoid receptor [1], 2200 nM.

As for `Cc1cc(C)c(S(=O)(=O)NC(COc2cccc3c2cnn3-c2ccc(F)cc2)C(F)(F)F)c(C)c1` (racemic), the results for the IC50 at Glucocorticoid receptor [3], against Glucocorticoid receptor [1] and on Glucocorticoid receptor [2] were 3.8 nM, 14 nM and 36 nM, respectively. The corresponding values for `Cc1cc(C)c(S(=O)(=O)N[C@@H](C)CNc2cccc3c2cnn3-c2ccc(F)c(C)c2)c(C)c1` are 4.1 nM, 14 nM and 23 nM. With `Cc1cc(C)c(S(=O)(=O)N[C@H](CNc2cccc3c2cnn3-c2ccc(F)cc2)C(C)C)c(C)c1`, the half-inhibitory concentration (IC50) was 35 nM against Glucocorticoid receptor [3], 12 nM on Glucocorticoid receptor [1] and 2.1 nM against Glucocorticoid receptor [2]. At Glucocorticoid receptor [1], `COc1cccc(-n2ncc3c(NC[C@H](C)NS(=O)(=O)c4c(C)cc(C)cc4C)cccc32)c1` returned an IC50 of 41 nM.

At Glucocorticoid receptor [3], `Cc1ccc(S(=O)(=O)N[C@@H](C)COc2cccc3ncccc23)c(C)c1` displayed an IC50 of 1600 nM. Take `Cc1cc(C)c(S(=O)(=O)N[C@@H](C)CCc2cccc3c2cnn3-c2ccc(F)cc2)c(C)c1`: the IC50 at Glucocorticoid receptor [1] is 23 nM; against Glucocorticoid receptor [2], 12 nM.

As to `Cc1cc(C)c(S(=O)(=O)N[C@@H](C)CNc2cccc3c2cnn3-c2ccc(Cl)cc2)c(C)c1`, the half-maximal inhibitory concentration (IC50) at Glucocorticoid receptor [3] was determined as 3.4 nM; against Glucocorticoid receptor [1], 3.7 nM; on Glucocorticoid receptor [2], 13 nM. Take `Cc1cc(C)c(S(=O)(=O)N[C@@H](C)CNc2ccc(C)c3ncccc23)c(C)c1`: the IC50 against Glucocorticoid receptor [1] stood at 1100 nM. That is a single-digit micromolar value. In the case of `Cc1cc(C)c(S(=O)(=O)N[C@@H](C)CNc2cccc3c2cnn3-c2cncnc2)c(C)c1`, the IC50 against Glucocorticoid receptor [3] turned out to be 5.3 nM; at Glucocorticoid receptor [1], 6.9 nM; at Glucocorticoid receptor [2], 8.1 nM. For `Cc1cccc(-n2ncc3c(NC[C@H](C)NS(=O)(=O)c4c(C)cc(C)cc4C)cccc32)c1`, the 50% inhibitory concentration (IC50) against Glucocorticoid receptor [1] was 6.6 nM; on Glucocorticoid receptor [2] it was 8.8 nM. `C[C@@H](COc1cccc2ncccc12)NS(=O)(=O)c1ccccc1`: on Glucocorticoid receptor [3], the IC50 was more than 10000 nM.

In turn, `Cc1ccc(S(=O)(=O)N[C@@H](C)COc2cccc3cnccc23)c(C)c1` registered a 50% inhibitory concentration (IC50) against Glucocorticoid receptor [3] of 410 nM. In the case of `Cc1cc(C)c(S(=O)(=O)N[C@@H](C)CNc2cccc3c2cnn3-c2ccc(F)nc2)c(C)c1`, the IC50 against Glucocorticoid receptor [2] came to 23 nM.

The compound `Cc1cc(C)c(S(=O)(=O)N[C@@H](C)CNc2cccc3ncccc23)c(C)c1` had a concentration for half-maximal inhibition (IC50) against Glucocorticoid receptor [1] of 1800 nM. On the same count and under the same terms, the result for `Cc1nn(C2CCCC2)c(C)c1S(=O)(=O)N[C@@H](C)CNc1cccc2c1cnn2-c1cncnc1` reads 43 nM.

Take `Cc1cc(C)c(S(=O)(=O)N[C@@H](C)COc2cccc3ncccc23)c(C)c1`: the values for the half-inhibitory concentration (IC50) on Glucocorticoid receptor [3] and on Glucocorticoid receptor [1] were 240 nM and 960 nM, respectively. Regarding `Cc1cc(C)c(S(=O)(=O)N[C@@H](C)COc2c(C)cccc2C)c(C)c1`, on Glucocorticoid receptor [3], the IC50 was 85 nM.

Take `Cc1cc(C)c(S(=O)(=O)NC(C)CSc2cccc3c2cnn3-c2ccc(F)cc2)c(C)c1` (racemic): on Glucocorticoid receptor [3], the IC50 is 7.7 nM. `Cc1cc(C)c(S(=O)(=O)N[C@@H](C)CNc2cccc3[nH]ncc23)c(C)c1`: the 50% inhibitory concentration (IC50) against Glucocorticoid receptor [1] amounted to 760 nM.

As for `Cc1cc(C)c(S(=O)(=O)N[C@@H](C)CNc2cccc3c2cnn3-c2cccnc2)c(C)c1`, the figures for the IC50 against Glucocorticoid receptor [1] and at Glucocorticoid receptor [2] were 2.6 nM and 2 nM, respectively. The corresponding values for `Cc1ccc(-n2ncc3c(NC[C@H](C)NS(=O)(=O)c4c(C)cc(C)cc4C)cccc32)cc1` are 4.5 nM and 12 nM. Regarding `Cc1cc(C)c(S(=O)(=O)N[C@@H](C)CNc2ccc3ncccc3c2)c(C)c1`, at Glucocorticoid receptor [3], it took 10000 nM to reach half-maximal inhibition (IC50). This counts as double-digit micromolar. On the same count and under the same terms, the result for `C[C@@H](COc1cccc2ncccc12)NS(=O)(=O)c1cccc(C#N)c1` reads 1800 nM. `Cc1cc(C)c(S(=O)(=O)N[C@@H](C)CNc2cccc3c2cnn3-c2cccc(F)c2)c(C)c1`: the IC50 against Glucocorticoid receptor [1] was 6.1 nM; against Glucocorticoid receptor [2] it was 28 nM.

In the case of `Cc1cc(C)c(S(=O)(=O)N[C@@H](C)COc2cccc3cnccc23)c(C)c1`, in [4], the logD was determined as 4.1. This compound returned a half-inhibitory concentration (IC50) against Glucocorticoid receptor [3] of 18 nM. For `Cc1nn(C2CCCC2)c(C)c1S(=O)(=O)N[C@@H](C)COc1cccc2cnccc12`, in that order: 3.5 and 32 nM. On to `Cc1nn(C2CCCC2)c(C)c1S(=O)(=O)N[C@@H](C)CNc1cccc2c1cnn2-c1ccc(C#N)cc1`, for which the IC50 at Glucocorticoid receptor [1] worked out at 16 nM; at Glucocorticoid receptor [2], 13 nM. Take `CCC(=O)O[C@]1(C(=O)SCF)[C@H](C)C[C@H]2[C@@H]3C[C@H](F)C4=CC(=O)C=C[C@]4(C)[C@@]3(F)[C@@H](O)C[C@@]21C` [FLUTICASONE PROPIONATE]: the results for the inhibition in vivo at 0.01 mg/kg in the data set on Rattus norvegicus [5] and with Rattus norvegicus [8] were 84% and 64%, respectively. For the same compound, the inhibition in vivo at 0.03 mg/kg in the data set with Rattus norvegicus [6] came to 92%; with Rattus norvegicus [9] it was 78%; in the data set on Mus musculus, 0%. The figures for the inhibition in vivo at 0.1 mg/kg in the data set with Rattus norvegicus [7] and in the data set with Rattus norvegicus [10] were 94% and 116%, respectively. For `C[C@@H](COc1cccc2ncccc12)NS(=O)(=O)c1c(Cl)cc(Cl)cc1Cl`, the IC50 was 80 nM against Glucocorticoid receptor [3] and 2400 nM at Glucocorticoid receptor [1]. On to `Cc1nn(C2CCCC2)c(C)c1S(=O)(=O)N[C@@H](C)CNc1cccc2c1cnn2-c1ccc(F)cc1`, for which inhibition against Glucocorticoid receptor [1] was half-maximal at 9.7 nM (IC50).

On to `Cc1cc(C)c(S(=O)(=O)N[C@@H](C)CNc2ccc3cnccc3c2)c(C)c1`, for which, on Glucocorticoid receptor [3], half-maximal inhibition (IC50) was put at 10000 nM. Still for that read-out and setting: the result for `C[C@@H](COc1cccc2ncccc12)NS(=O)(=O)c1ccccc1C#N` reads more than 10000 nM.

Turning to `COc1ccccc1S(=O)(=O)N[C@@H](C)COc1cccc2ncccc12`, at Glucocorticoid receptor [3], the IC50 was more than 10000 nM. The same measure, in the same setting: under `Cc1cc(Cl)cc(Cl)c1S(=O)(=O)N[C@@H](C)COc1cccc2ncccc12` stands 220 nM.
